Reference: US8530404B2, “Compounds and methods for treatment of cancer” (FibroGen, Inc., priority 2005, dated 2013)
Where two headings read alike, the source gives them in different places.

What was measured:
[1] = test system: NDRG1 gene expression; assay: NDRG1 gene expression in Hep3B cells (Affymetrix microarray); format: cell-based, human; details: 25 μM, vs DMSO control
Experimental: (§1) To identify compounds useful in the methods of the present invention, the following studies were performed. The effect of compounds of the present invention on expression of various genes associated with anti-tumor activity (e.g., genes having anti-proliferative activity, genes having pro-apoptotic activity, genes having anti-tumor activity, etc.). In these experiments, the effect of compounds on BNIP3, BNIP3L, NDRG1, CDKN1C, and REDD1/RTP801 gene expression in various types of cultured tumor cells line was examined, including Hep3B cells (human hepatocellular carcinoma), Kelly neuroblastoma cells, and MCF7 cells (human breast cancer)
(§2) The effects of various compounds of the present invention on the expression of genes associated with tumor growth and progression were examined in Hep3B cells as follows. Hep3B cells (ATCC) were cultured in DMEM containing 8% fetal bovine serum (FBS) and antibiotics. For each experiment, Hep3 cells were added to 6-well tissue culture dishes (approximately 500,000 cells per well). After 8 hours, the media was replaced with DMEM containing 0.5% FBS. Sixteen hours later, various compounds of the present invention were added to the cultured cells to a final concentration of 25 μM. The cells were then harvested and added to RNA extraction buffer (RNeasy, Qiagen). RNA was isolated from cell lysates using RNeasy Mini spin columns (Qiagen) according to the manufacturer's instructions. Changes in expression of various gene transcript levels associated with tumor growth and progression were determined by Affymetrix microarray. Labeled probes were prepared and hybridized to U133A Affyrnetrix microarrays.
(§3) Changes in gene expression levels in vitro following compound addition are presented as fold change relative to gene expression levels observed in control cells treated with DMSO only. Data represents the average of two independent studies.

[2] = test system: BNIP3L gene expression; assay: BNIP3L gene expression in Hep3B cells (Affymetrix microarray); format: cell-based, human; details: 25 μM, vs DMSO control
Experimental: as §1, §2, §3

[3] = test system: BNIP3 gene expression; assay: In vivo BNIP3 gene expression in Swiss Webster mice (quantitative PCR); details: Mus musculus, iv, 4 h, single 60 mg/kg i.v. dose, four hours after administration, normalized to 18S, read-out: fold change in BNIP3 mRNA level
Experimental: (§4) The effects of various compounds of the present invention on the expression of genes associated with tumor growth and progression (e.g., expression of genes associated with anti-proliferative effects) were examined in vivo as follows. In these studies, male Swiss Webster mice (25 g) were administered a single intravenous (i.v.) dose of various compounds (60 mg/kg) of the present invention via the tail vein. Four hours after administration of compound, the kidneys and liver were removed and preserved in RNAlater (Ambion). RNA isolation and cDNA synthesis was carried out as follows. Murine kidney tissue was added to TRIzol (Invitrogen) and homogenized using a 5-mm stainless steel bead for 4 minutes at 25 Hz in a Mixer Mill 300 (Qiagen). Homogenates were extracted with chloroform according to the manufacturer's instructions and aqueous supernatants were isolated. The aqueous supernatants were combined with equal volumes of 70% ethanol and then loaded onto RNeasy Mini spin columns (Qiagen). RNA was isolated according to the manufacturer's instructions.
(§5) Synthesis of cDNA from the isolated total RNA was carried out using Omniscript reverse transcriptase (Qiagen) and random primers according to the manufacturer's instructions. Measurement of gene expression levels in compound-treated animals and in vehicle-treated control animals was performed by quantitative PCR using TaqMan Universal PCR Master Mix (Applied Biosystems) and TaqMan Assay-on-Demand assays (Applied Biosystems) in a Prism 7000 system instrument (Applied Biosystems), according to manufacturer's instructions. The assays used were as follows: 18S ribosomal RNA, Hs99999901_s1; BNIP3, Mm00833810_g1; BNIP3L, Mm00786306_s1; NDRG1, Mm00440447_m1. Each PCR amplification reaction included a standard curve and a water blank. Data for gene expression levels for BNIP3, BNIP3L, and NDRG1 were normalized to that of 18S ribosomal RNA within each sample. Data is presented as fold change in specific mRNA levels relative to that of non-treated control animals.

[4] = test system: BNIP3L gene expression; assay: In vivo BNIP3L gene expression in Swiss Webster mice (quantitative PCR); details: Mus musculus, iv, 4 h, single 60 mg/kg i.v. dose, four hours after administration, normalized to 18S, read-out: fold change in BNIP3L mRNA level
Experimental: as §4, §5

[5] = test system: BNIP3 gene expression; assay: BNIP3 gene expression in Hep3B cells (Affymetrix microarray); format: cell-based, human; details: 25 μM, vs DMSO control
Experimental: as §1, §2, §3

[6] = test system: REDD1/RTP801 gene expression; assay: REDD1/RTP801 gene expression in Hep3B cells (Affymetrix microarray); format: cell-based, human; details: 25 μM, vs DMSO control
Experimental: as §1, §2, §3

[7] = test system: BNIP3 gene expression; assay: BNIP3 gene expression in Kelly neuroblastoma cells; format: cell-based; details: Kelly cells; 20 μM; 20-24 hours; normalized to 18S RNA; vs DMSO control; read-out: fold-increase in BNIP3 mRNA expression
Experimental: as §1
(§6) The effects of various compounds of the present invention on the expression of genes associated with tumor growth and progression were examined in Kelly neuroblastoma cells as follows. Kelly neuroblastoma cells were grown in RPMI media. For each experiment, Kelly neuroblastoma cells were added to 96-well tissue culture plates (approximately 40,000 cells per well) such that the plated cells reached confluence the following day. On the following day, the cells were washed and the media replaced with RPMI containing 0.5% FBS. Various compounds of the present invention were added to the cultured cells to a final concentration of 20 μM, and the cells cultured for an additional 20-24 hours. DMSO (0.5%) was added to control cell cultures.
(§7) RNA was isolated from the Kelly neuroblastoma cells using a commercial kit and used for the preparation of cDNA. BNIP3, CDKN1C, and 18S RNA levels were measured using commercial kits (18S, Applied Biosystems cat#4319413E); BNIP3, Applied Biosystems cat#HS00969293 MH). RNA levels for BNIP3 and CDKN1C were normalized to that of 18S RNA and is presented as fold-change compared to that observed in DMSO control cultures. Kelly cell NDRG1 and BNIP3L mRNA levels were measured by Affymetrix microarray in a separate study. Cells were harvested after 6 hours incubation with 20 μM test compound or DMSO (0.5%) as control. RNA was isolated and labeled probes were prepared and hybridized to U133 Plus 2.0 Affymetrix microarrays. Changes in gene expression levels are presented as fold change compared to that of control (0.5% DMSO-treated) cultures.

[8] = test system: CDKN1C gene expression; assay: CDKN1C gene expression in Kelly neuroblastoma cells; format: cell-based; details: Kelly cells; 20 μM; 20-24 hours; normalized to 18S RNA; vs DMSO control; read-out: fold-increase in CDKN1C mRNA expression
Experimental: as §1, §6, §7

[9] = test system: CDKN1C gene expression; assay: CDKN1C gene expression in MCF7 cells; format: cell-based; details: Homo sapiens; MCF7 cells; 20 μM; 20-24 hours; vs 0.5% DMSO control; read-out: fold-increase in CDKN1C mRNA expression
Experimental: as §1
(§8) The effects of various compounds of the present invention on the expression of genes associated with tumor growth and progression were examined in MCF7 breast cancer cells as follows. In some experiments, MCF7 (ATCC) cells were plated in 96-well tissue culture dishes (approximately 20,000 cells per well) and cultured in DMEM media supplemented with 10% serum. The following day, the cells were washed and the media was replaced with DMEM containing 0.5% FBS. Various compounds of the present invention were added to the cultured cells to a final concentration of 20 μM, and the cells cultured for an additional 20-24 hours. DMSO (0.5%) was added to control cell cultures. RNA was isolated as described above. Changes in gene expression levels are presented as fold change compared to that of control (0.5% DMSO-treated) cultures.

[10] = test system: BNIP3 gene expression; assay: BNIP3 gene expression in MCF7 cells; format: cell-based; details: Homo sapiens; MCF7 cells; 20 μM; 20-24 hours; vs 0.5% DMSO control; read-out: fold-increase in BNIP3 mRNA expression
Experimental: as §1, §8
In other experiments, MCF7 cells were plated in 96-well tissue culture dishes as described above. After 24 hours, the cells were washed and the media was replaced with DMEM containing 0.5% FBS. Various compounds of the present invention were added to the cultured cells to a final concentration of 20 μM. DMSO (0.5%) was added to control cell cultures. After 24 hours, changes in gene expression of BNIP3 and 18S RNA were determined directly using one-step quantitative multiplex RT-PCR reactions according to the manufacturer's instructions (QuantiTect Multiplex RT-PCR Kit, Qiagen, catalog no. 204643). Changes in gene expression levels are presented as fold change compared to that of control (0.5% DMSO-treated) cultures.

[11] = test system: NDRG1 gene expression; assay: In vivo NDRG1 gene expression in Swiss Webster mice (quantitative PCR); details: Mus musculus, iv, 4 h; kidney; single 60 mg/kg i.v. dose; four hours after administration; normalized to 18S; read-out: fold change in NDRG1 mRNA level
Experimental: as §4, §5

SMILES | fold-increase in NDRG1 mRNA expression [1] | fold-increase in BNIP3L mRNA expression [2] | fold induction at 60 mg/kg ([3]; liver) | fold induction at 60 mg/kg ([4]; liver) | fold-increase in BNIP3 mRNA expression [5] | fold-increase in REDD1/RTP801 mRNA expression [6] | fold induction at 20 µM [7] | fold induction at 20 µM [8] | fold induction at 20 µM [9] | fold induction at 20 µM [10] | fold induction at 60 mg/kg ([3]; kidney) | fold induction at 60 mg/kg ([4]; kidney) | fold induction at 60 mg/kg [11]
O=C(O)c1c[nH]c2c(ccc3cccnc32)c1=O [Compound F, 4-Oxo-1,4-dihydro-[1,10]phenanthroline-3-carboxylic acid] | 5.4 fold | 3.2 fold | 1.1 | 1.3 | 3.5 fold | 6.3 fold | – | – | – | – | – | – | –
COc1ccc(CCN(CCC(=O)NO)S(=O)(=O)c2ccc(NC(=O)N(Cc3ccccc3)Cc3ccccc3)cc2)cc1 [Compound G, 3-{[4-(3,3-Dibenzyl-ureido)-benzenesulfonyl]-[2-(4-methoxy-phenyl)-ethyl]-amino}-N-hydroxy-propionamide] | 6.8 fold | 4.3 fold | – | – | 4.2 fold | 14.1 fold | – | – | – | – | – | – | –
O=C(O)CNC(=O)c1nc2cc(Cl)ccc2cc1O [Compound H, [(7-Chloro-3-hydroxy-quinoline-2-carbonyl)-amino]-acetic acid] | 2.4 fold | 1.5 fold | – | – | 2.0 fold | 2.4 fold | 5.9 | 11.6 | 0.7 | 3.2 | – | – | –
COc1ccc2c(O)c(C(=O)NCC(=O)O)nc(Cl)c2c1 [Compound I, [(1-Chloro-4-hydroxy-7-methoxy-isoquinoline-3-carbonyl)-amino]-acetic acid] | 3.3 fold | 1.7 fold | – | – | 2.1 fold | 3.8 fold | – | – | – | – | – | – | –
O=C(O)CNC(=O)c1ncc2cc(Cl)c(Cl)cc2c1O [Compound J, [(6,7-Dichloro-4-hydroxy-isoquinoline-3-carbonyl)-amino]-acetic acid] | – | – | – | – | – | – | 8.9 | 6.9 | 0.8 | 3.3 | 2 | 1.3 | 1.7
O=C(O)CNC(=O)c1ncc2cc(Oc3ccccc3)ccc2c1O [Compound K, [(4-Hydroxy-7-phenoxy-isoquinoline-3-carbonyl)-amino]-acetic acid] | 3.3 fold | 2.2 fold | – | – | 3.0 fold | 4.8 fold | – | – | – | 7.7 | – | – | –
C[C@H](NC(=O)c1ncc2cc(Sc3ccccc3)ccc2c1O)C(=O)O [Compound L, (S)-2-[(4-Hydroxy-7-phenylsulfanyl-isoquinoline-3-carbonyl)-amino]-propionic acid] | – | – | – | – | – | – | 32.8 | 120 | 0.2 | 4.8 | 2.8 | 3.4 | 1
O=C(O)CNC(=O)c1nc(Oc2ccccc2)c2cc(Oc3ccccc3)ccc2c1O [Compound M, [(4-Hydroxy-1,7-diphenoxy-isoquinoline-3-carbonyl)-amino]-acetic acid] | – | – | – | – | – | – | 27.6 | 3.4 | 2.1 | 0.4 | – | – | –
O=C(O)CNC(=O)c1ncc2cc(Sc3ccccc3)ccc2c1O [Compound N, [(4-hydroxy-7-phenylsulfanyl-isoquinoline-3-carbonyl)-amino]-acetic acid] | 3.7 fold | 2.8 fold | – | – | 3.6 fold | 5.7 fold | 27.1 | 183 | 0.4 | 4.9 | 3.1 | 3.4 | 1.2
